Data reported in PubChem BioAssay AID2060607 (Molecular Pharmacology Branch, DTP, NCI, 2025).
pIC50: −log10 of the molar value. Values joined by “and” are separate entries in the source; they are usually repeats but may differ in a detail not shown here. Equal entries are not always repeated.

Test system: 876862-298-R-J1-PDC complex spheroids, viability % test/control
Test: Anticancer human tumor 876862-298-R-J1-PDC patient-derived endometrial carcinoma cell line growth inhibition [CLK]
Details: for viability, T/C: stronger effect = lower value; active = viability on the fitted dose curve at most 10% of control; inactive = the rest
Outline: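 Patient-derived tumor cells grown as complex spheroids with HUVEC endothelial cells and mesenchymal stem cells, treated with drug combinations. Concentrations descend in half-log steps from near clinical Cmax, or from 10 microM if Cmax unknown.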

[1] = curve of first compound, second compound 0.0316 µM
[2] = curve of first compound, second compound 0.1 µM
[3] = curve of first compound, second compound 0.316 µM
[4] = curve of first compound, second compound 1 µM
[5] = curve of first compound, second compound 3.16 µM
[6] = curve of first compound, second compound 10 µM
[7] = second compound 0.0316 µM, first compound 0.0316 µM
[8] = second compound 0.0316 µM, first compound 0.1 µM
[9] = second compound 0.0316 µM, first compound 0.316 µM
[10] = second compound 0.0316 µM, first compound 1 µM
[11] = second compound 0.0316 µM, first compound 3.16 µM
[12] = second compound 0.0316 µM, first compound 10 µM
[13] = second compound 0.1 µM, first compound 0.0316 µM
[14] = second compound 0.1 µM, first compound 0.1 µM
[15] = second compound 0.1 µM, first compound 0.316 µM
[16] = second compound 0.1 µM, first compound 1 µM
[17] = second compound 0.1 µM, first compound 3.16 µM
[18] = second compound 0.1 µM, first compound 10 µM
[19] = second compound 0.316 µM, first compound 0.0316 µM
[20] = second compound 0.316 µM, first compound 0.1 µM
[21] = second compound 0.316 µM, first compound 0.316 µM
[22] = second compound 0.316 µM, first compound 1 µM
[23] = second compound 0.316 µM, first compound 3.16 µM
[24] = second compound 0.316 µM, first compound 10 µM
[25] = second compound 1 µM, first compound 0.0316 µM
[26] = second compound 1 µM, first compound 0.1 µM
[27] = second compound 1 µM, first compound 0.316 µM
[28] = second compound 1 µM, first compound 1 µM
[29] = second compound 1 µM, first compound 3.16 µM
[30] = second compound 1 µM, first compound 10 µM
[31] = second compound 3.16 µM, first compound 0.0316 µM
[32] = second compound 3.16 µM, first compound 0.1 µM
[33] = second compound 3.16 µM, first compound 0.316 µM
[34] = second compound 3.16 µM, first compound 1 µM
[35] = second compound 3.16 µM, first compound 3.16 µM
[36] = second compound 3.16 µM, first compound 10 µM
[37] = second compound 10 µM, first compound 0.0316 µM
[38] = second compound 10 µM, first compound 0.1 µM
[39] = second compound 10 µM, first compound 0.316 µM
[40] = second compound 10 µM, first compound 1 µM
[41] = second compound 10 µM, first compound 3.16 µM
[42] = second compound 10 µM, first compound 10 µM
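Note: spheroids exposed to drugs for 7 days before readout.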
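Throughout, for viability, T/C: 100% = DMSO vehicle control wells.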

CC(CO)NC(=O)c1cc(-c2ccc(Cl)cc2)nn(-c2cnn(C)c2)c1=O (configuration not stated) + CNC(=O)c1ccc(Nc2nc(OC3CCCC3)c3c(-c4ccc5nc(C)oc5c4)c[nH]c3n2)c(OC)c1
< 5.00: pIC50 [1]
inactive: viability, T/C [7] 68.7% | viability, T/C [8] 81% | viability, T/C [9] 66.9% | viability, T/C [10] 67.7% | viability, T/C [11] 62.9% | viability, T/C [12] 55.7% | viability, T/C [13] 41% | viability, T/C [14] 53% | viability, T/C [15] 44.9% | viability, T/C [16] 48.5% | viability, T/C [17] 46.1% | viability, T/C [18] 42.7% | viability, T/C [19] 38.7% | viability, T/C [20] 43.8% | viability, T/C [21] 39.7% | viability, T/C [22] 37.9% | viability, T/C [23] 42.7% | viability, T/C [24] 42.1% | viability, T/C [25] 33.8% | viability, T/C [26] 32.6% | viability, T/C [27] 38.9% | viability, T/C [28] 33.3% | viability, T/C [29] 30% | viability, T/C [30] 31.3% | viability, T/C [31] 24% | viability, T/C [32] 25.1% | viability, T/C [33] 21.7% | viability, T/C [34] 25.5% | viability, T/C [35] 27.2% | viability, T/C [36] 22.4% | viability, T/C [37] 23.9% | viability, T/C [38] 21.2% | viability, T/C [39] 20.5% | viability, T/C [40] 23.8% | viability, T/C [41] 23.1% | viability, T/C [42] 20.9%
> 7.50: pIC50 [2] | pIC50 [3] | pIC50 [4] | pIC50 [5] | pIC50 [6]

CN1CCN(c2cc(C(=O)Nc3cc4cc(-c5cnn(C)c5)ccc4cn3)ccn2)CC1
99.4 nM [middle of 12 runs]: IC50 (compound alone, run of 09/18/2023)
inactive: viability, T/C (compound 0.0316 µM) 95.1% [middle of 12 runs] | viability, T/C (compound 0.1 µM) 49.8% [middle of 12 runs]
active: viability, T/C (compound 0.316 µM) 3.46% [middle of 12 runs] | viability, T/C (compound 1 µM) 1.68% [middle of 12 runs] | viability, T/C (compound 3.16 µM) 1.49% [middle of 12 runs] | viability, T/C (compound 10 µM) 1.35% [middle of 12 runs]

C=CC(=O)N1CCN(c2nc(=O)n(-c3c(C)ccnc3C(C)C)c3nc(-c4c(O)cccc4F)c(F)cc23)C(C)C1 (configuration not stated)
inactive: viability, T/C (compound 0.0316 µM) 95.8% | viability, T/C (compound 0.1 µM) 97.3% and 99.5% | viability, T/C (compound 0.316 µM) 102% and 108% | viability, T/C (compound 1 µM) 106% and 103% | viability, T/C (compound 3.16 µM) 110% and 114% | viability, T/C (compound 10 µM) 94.6% and 83%
< 5.00: pIC50 (curve of compound)

Nc1ccn(C2OC(CO)C(O)C2(F)F)c(=O)n1 (configuration not stated) + CNC(=O)c1ccc(Nc2nc(OC3CCCC3)c3c(-c4ccc5nc(C)oc5c4)c[nH]c3n2)c(OC)c1
inactive: viability, T/C [7] 15.1% | viability, T/C [13] 16.5% | viability, T/C [19] 17.7% | viability, T/C [25] 14.6% | viability, T/C [31] 10.5%
> 7.50: pIC50 [1] | pIC50 [2] | pIC50 [3] | pIC50 [4] | pIC50 [5] | pIC50 [6]
active: viability, T/C [8] 7.66% | viability, T/C [9] 9.02% | viability, T/C [10] 6.2% | viability, T/C [11] 7.72% | viability, T/C [12] 9.97% | viability, T/C [14] 9.17% | viability, T/C [15] 9.31% | viability, T/C [16] 7.24% | viability, T/C [17] 7.42% | viability, T/C [18] 10.1% | viability, T/C [20] 7.67% | viability, T/C [21] 7.58% | viability, T/C [22] 5.78% | viability, T/C [23] 7.22% | viability, T/C [24] 6.26% | viability, T/C [26] 8.47% | viability, T/C [27] 6.7% | viability, T/C [28] 6.04% | viability, T/C [29] 6.8% | viability, T/C [30] 5.73% | viability, T/C [32] 5.98% | viability, T/C [33] 5.8% | viability, T/C [34] 6.15% | viability, T/C [35] 4.91% | viability, T/C [36] 5.13% | viability, T/C [37] 8.61% | viability, T/C [38] 5.73% | viability, T/C [39] 5.74% | viability, T/C [40] 5.44% | viability, T/C [41] 6.11% | viability, T/C [42] 3.96%

CCCS(=O)(=O)Nc1ccc(F)c(C(=O)c2c[nH]c3ncc(-c4ccc(Cl)cc4)cc23)c1F
5.06 and 5.12: pIC50 (curve of compound)
inactive: viability, T/C (compound 0.0316 µM) 111% and 94.9% | viability, T/C (compound 0.1 µM) 107% and 108% | viability, T/C (compound 0.316 µM) 108% and 97.3% | viability, T/C (compound 1 µM) 100% and 110% | viability, T/C (compound 3.16 µM) 91.8% and 83.4% | viability, T/C (compound 10 µM) 43.5% and 39.1%

C#Cc1c(F)ccc2cc(O)cc(-c3ncc4c(N5CC6CCC(C5)N6)nc(OCC56CCCN5CC(F)C6)nc4c3F)c12 (configuration not stated) + CN1CCN(c2cc(C(=O)Nc3cc4cc(-c5cnn(C)c5)ccc4cn3)ccn2)CC1
< 5.00: pIC50 [1]
active: viability, T/C [19] 5.98% | viability, T/C [20] 5.2% | viability, T/C [21] 5.69% | viability, T/C [22] 4.19% | viability, T/C [23] 5.76% | viability, T/C [24] 4.81% | viability, T/C [25] 0.92% | viability, T/C [26] 0.91% | viability, T/C [27] 0.75% | viability, T/C [28] 1.82% | viability, T/C [29] 1.86% | viability, T/C [30] 1.68% | viability, T/C [31] 1.56% | viability, T/C [32] 2.17% | viability, T/C [33] 1.31% | viability, T/C [34] 2.48% | viability, T/C [35] 2.22% | viability, T/C [36] 3.07% | viability, T/C [37] 0.96% | viability, T/C [38] 0.95% | viability, T/C [39] 1.74% | viability, T/C [40] 1.58% | viability, T/C [41] 2.68% | viability, T/C [42] 1.54%
6.30: pIC50 [2]
> 7.50: pIC50 [3] | pIC50 [4] | pIC50 [5] | pIC50 [6]
inactive: viability, T/C [7] 98.9% | viability, T/C [8] 92.6% | viability, T/C [9] 87.8% | viability, T/C [10] 93.7% | viability, T/C [11] 91.6% | viability, T/C [12] 74.1% | viability, T/C [13] 51.6% | viability, T/C [14] 52.2% | viability, T/C [15] 50.8% | viability, T/C [16] 48.6% | viability, T/C [17] 47.7% | viability, T/C [18] 45.4%
